Test results: patent US4528289A, “Corynantheine derivates, processes for their preparation, and their use” (Dr. Willmar Schwabe GmbH & Co., priority 1982, dated 1985)
Counter-ions that a name gives are not always drawn.

Assay: hygroscopicity of crystals
Assay type: physicochemical
Details: crystals dried at 110° C. for 8 hours at oil pump vacuum
Procedure: For analysis, the product is again recrystallised from methanol by the addition of diethyl ether. […] 187° C. (decomp. from 158° C., subl. of the base); [α]D^20 =-26° (c=2 in methanol).

CC[C@H]1CN2CCc3c([nH]c4ccccc34)[C@@H]2C[C@@H]1C(COC)C(=O)OC (stereo partly shown) [Example 9, tetrahydrocorynantheine hydrochloride]
hygroscopicity (in words): slightly hygroscopic
